According to article PMC5045383 (Oncotarget, 2016):

Columns and labels:
[1] = system: FLT3-ITD-F691L; test: Auto-phosphorylation of FLT3 in transformed BaF3 isogenic cells; type: cell-based
Text: (§1) The following antibodies were purchased from Cell Signaling Technology (Danvers, MA): FLT3 (8F2) Rabbit mAb (#3462), Phospho-FLT3 (Tyr589/591) (30D4) Rabbit mAb (#3464), NF-κB p65 (D14E12) XP® Rabbit mAb (#8242), Phospho-NF-κB p65 (Ser536) (93H1) Rabbit mAb (#3033), Stat5 Antibody (#9363), Phospho-Stat5 (Tyr694) (C71E5) Rabbit mAb (#9314), c-Myc (D84C12) XP® Rabbit mAb (#5605), Akt (pan) (C67E7) Rabbit mAb (#4691), Phospho-Akt (Thr308) (244F9) Rabbit mAb (#4056), Phospho-Akt (Ser473) (D9E) XP® Rabbit mAb (#4060), p44/42 MAPK (Erk1/2) (137F5) Rabbit mAb (#4695), Phospho-p44/42 MAPK (Erk1/2) (Thr202/Tyr204) (D13.14.4E) XP® Rabbit mAb (#4370), GAPDH (D16H11) XP® Rabbit mAb, PARP (46D11) rabbit mAb (#9532), Caspase-3 (8G10) rabbit mAb (#9665), GSK-3β (27C10) Rabbit mAb (#9315), Phospho-GSK-3β (Ser9) (5B3) Rabbit mAb (#9323), FoxO1 (C29H4) Rabbit mAb (#2880), Phospho-FoxO1 (Thr24)/FoxO3a (Thr32)/FoxO4 (Thr28) (4G6) Rabbit mAb (#2599), PRAS40 (D23C7) XP® Rabbit mAb (#2691), Phospho-PRAS40 (Thr246) (C77D7) Rabbit mAb (#2997), 4E-BP1 (#9644), 4E-BP1 (53H11) Rabbit mAb (#9644), p70 S6 Kinase (49D7) Rabbit mAb (#2708), Phospho-p70 S6 Kinase (Thr389) (108D2) Rabbit mAb (#9234). Antibodies were used at 1:1000. Protein lysate preparation and immunoblotting were carried out as previously described.
(§2) Retroviral constructs for BaF3-FLT3 mutants were made based on the pMSCVpuro (Clontech) backbone. For TEL-FLT3 vector, the first 1 kb of human TEL gene with an artificial myristoylation sequence ([…]) was cloned into pMSCVpuro retroviral vector, followed by a 3xFLAG tag sequence and a stop codon. Then the kinase domain coding sequence of FLT3 was inserted in-frame between TEL and 3× FLAG sequences. For full-length expression vectors, the coding sequences of FLT3 variants were directly cloned in pMSCVpuro vector with a 3X FLAG tag at the C-terminal end. All mutagenesis studies were performed using the QuikChange Site-Directed Mutagenesis Kit (Stratagene) following the manufacturer's instructions. […]

[2] = system: FLT3-ITD; test: as above; type: cell-based
Text: as §1, §2

[3] = system: FLT3-ITD-D835Y; test: as above; type: cell-based
Text: as §1, §2

[4] = system: MV4-11; test: Cell cycle analysis (PI, flow cytometry); type: cell-based, human; conditions: 24 hours
Experimental: The cells were fixed in 70% cold ethanol and incubated at −20°C overnight, then stained with PI/RNase staining buffer (BD Pharmingen). Flow cytometry was performed using a FACS Calibur (BD), and results were analyzed by ModFit software.

[5] = system: MV4-11 cells; test: Apoptosis effect examination (PARP, Caspase-3 immunoblot); type: cell-based, human; conditions: MV4-11, 24 hours; more significantly at 1 μM
Text: (§3) Cells were then washed in PBS and lysed in cell lysis buffer. PARP, Caspase-3, GAPDH antibodies (Cell signaling Technology) were used for immunoblotting.

[6] = system: MOLM14 cells; test: as above; type: cell-based, human; conditions: MOLM14, 24 hours; more pronounced at 3 μM
Text: as §3

[7] = system: FLT3-ITD; test: Kinase kinetic assay (ADP-Glo, varied ATP); type: biochemical; conditions: range of ATP concentrations
Experimental: Kinetic analyses of FLT3-ITD were performed using a luminometric kinase assay varying the concentration of ATP using the ADP-Glo reagents (Promega). […] After 60 min incubation at RT, various concentrations of ATP, 0.2 μg/μL FLT3 substrate Poly (4:1 Glu, Tyr) peptide added and incubated for 60 min at 37°C. The overall rate of reaction is determined as the slope of the decreasing phase of the reaction. Each data point was collected in duplicate and kinetic parameters were obtained using Prism 5.0 (GraphPad Software, San Diego, CA).

[8] = system: FLT3-ITD mediated signaling in MOLM14 and MV4-11 cell lines; test: Signaling pathway effect examination (immunoblot); type: cell-based, human; conditions: intact FLT3-ITD-positive cell lines, 4 hours
Text: Cells were then washed in PBS and lysed in cell lysis buffer. FLT3, Phospho-FLT3 (Tyr589/591), AKT, Phospho-AKT Ser473, Phospho-AKT Thr308, GSK-3β, Phospho-GSK-3β (Ser9), Phospho-FoxO1 (Thr24), FoxO1, PRAS40, Phospho-PRAS40 (Thr246), STAT5, Phospho-STAT5 (Tyr694), NF-ΚB-P65, Phospho-NF-ΚB-P65 (Ser536), P70S6K, Phospho-P70S6K Thr389, 4EBP1, Phospho-4EBP1 (Thr37/46), ERK, Phospho-p44/42MAPK (Erk1/2) (Thr202/Tyr204), C-Myc and GAPDH antibodies (Cell Signaling Technology) were used for immunoblotting.

[9] = system: FLT3-ITD-positive AML patient primary cells; test: Anti-proliferation, AML patient primary cells; type: cell-based, human; conditions: at 1 μM; compared to normal bone marrow cells
Experimental: Mononuclear cells were isolated from samples from AML patients identified as harboring mutant FLT3. Cells were tested in liquid culture (DMEM, supplemented with 20% FBS) in the presence of different concentrations of inhibitors. All blood and bone marrow samples from AML patients were obtained under approval of the Dana Farber Cancer Institute Institutional Review Board. The ethics committees approved the consent procedure. All studies were performed with ACUC approved protocols at DFCI.

EC50 [1]: 400 nM | EC50 [2]: 85 nM | EC50 [3]: 1260 nM | mode of inhibition (kinetics analysis) [7]: ATP competitive inhibitor
SMILES: Cc1[nH]nc2ccc(-c3cncc(OC[C@@H](N)Cc4ccccc4)c3)cc12 [A674563]
%G0–G1 ([4]; MV4-11, 0.3 μM): 68.69% | %G2–M ([4]; MV4-11, 0.3 μM): 2.61% | %S ([4]; MV4-11, 0.3 μM): 28.7% | %G0–G1 ([4]; MV4-11, 3 μM): 68.62% | %G2–M ([4]; MV4-11, 3 μM): 8.56% | %S ([4]; MV4-11, 3 μM): 22.82% | concentration at which apoptosis was induced [5]: 0.3 µM | concentration at which induction of apoptosis was evident [6]: 1 µM | concentration from which auto-phosphorylation of FLT3-ITD at Y589/591 is affected [8]: ≥ 5 µM | concentration from which phosphorylation of STAT5 and expression of c-MYC are inhibited [8]: ≥ 0.5 µM | anti-proliferation activity in patient primary cells [9]: potent anti-proliferation activity
